Assay results taken from the NIST ThermoML archive (doi:10.1021/je050085p).

What was measured:
[1] = 101.33 kPa, Liquid
[2] = refractive index (Na D-line) (dimensionless); details: 101.33 kPa, Liquid, Standard Abbe refractometry
[3] = excess molar enthalpy (molar enthalpy of mixing); xn = mol fraction of the nth substance listed; details: 308.15 K, 101 kPa, Liquid, Flow calorimetry
[4] = xn = mol fraction of the nth substance listed; details: 308.15 K, 101 kPa, Liquid
[5] = refractive index (Na D-line) (dimensionless); xn = mol fraction of the nth substance listed; details: 308.15 K, 101 kPa, Liquid, Standard Abbe refractometry

OCc1ccccc1 [benzenemethanol]
Details	mass density, [1] [kg/m3]	refractive index, [2]
298.15 K	1041.65	1.5377
308.15 K	1033.64	1.535

OCc1ccccc1 [benzenemethanol] + COc1ccccc1
Details	excess molar enthalpy [kcal/mol]	mass density [kg/m3]	refractive index
[3], x2 = 0.038	0.022	–	–
[3], x2 = 0.0732	0.0461	–	–
[3], x2 = 0.1059	0.0655	–	–
[3], x2 = 0.1364	0.0877	–	–
[3], x2 = 0.1916	0.121	–	–
[3], x2 = 0.2401	0.148	–	–
[3], x2 = 0.3216	0.182	–	–
[3], x2 = 0.3871	0.203	–	–
[3], x2 = 0.4866	0.232	–	–
[3], x2 = 0.5872	0.249	–	–
[3], x2 = 0.6547	0.254	–	–
[3], x2 = 0.7398	0.252	–	–
[3], x2 = 0.7913	0.24	–	–
[3], x2 = 0.8505	0.211	–	–
[3], x2 = 0.8835	0.185	–	–
[3], x2 = 0.9191	0.146	–	–
[3], x2 = 0.9578	0.0877	–	–
[4], x2 = 0.0519	–	1030.85	–
[4], x2 = 0.0898	–	1028.81	–
[4], x2 = 0.1854	–	1023.62	–
[4], x2 = 0.2883	–	1018	–
[4], x2 = 0.3766	–	1013.19	–
[4], x2 = 0.4911	–	1006.94	–
[4], x2 = 0.5916	–	1001.47	–
[4], x2 = 0.6747	–	996.96	–
[4], x2 = 0.7745	–	991.59	–
[4], x2 = 0.9039	–	984.73	–
[4], x2 = 0.9448	–	982.58	–
[4], x2 = 0.9723	–	981.14	–
[5], x2 = 0.0519	–	–	1.5335
[5], x2 = 0.0898	–	–	1.5324
[5], x2 = 0.1854	–	–	1.5298
[5], x2 = 0.2883	–	–	1.527
[5], x2 = 0.3766	–	–	1.5247
[5], x2 = 0.4911	–	–	1.5218
[5], x2 = 0.5916	–	–	1.5193
[5], x2 = 0.6747	–	–	1.5173
[5], x2 = 0.7745	–	–	1.5149
[5], x2 = 0.9039	–	–	1.5118
[5], x2 = 0.9448	–	–	1.5108
[5], x2 = 0.9723	–	–	1.5102

CCOc1ccccc1 [ethoxybenzene]
Details	mass density, [1] [kg/m3]	refractive index, [2]
298.15 K	–	1.5058
308.15 K	950.86	1.5002
